{
  "source": "ChEMBL document CHEMBL4118125",
  "about": "“MK-8325: A silyl proline-containing NS5A inhibitor with pan-genotype activity for treatment of HCV” (Bioorg Med Chem Lett, 2018)",
  "key": {"Cytochrome P450 2D6": {"target": "Cytochrome P450 2D6 (Homo sapiens, UniProt P10635)", "sequence (P10635 whole entry)": "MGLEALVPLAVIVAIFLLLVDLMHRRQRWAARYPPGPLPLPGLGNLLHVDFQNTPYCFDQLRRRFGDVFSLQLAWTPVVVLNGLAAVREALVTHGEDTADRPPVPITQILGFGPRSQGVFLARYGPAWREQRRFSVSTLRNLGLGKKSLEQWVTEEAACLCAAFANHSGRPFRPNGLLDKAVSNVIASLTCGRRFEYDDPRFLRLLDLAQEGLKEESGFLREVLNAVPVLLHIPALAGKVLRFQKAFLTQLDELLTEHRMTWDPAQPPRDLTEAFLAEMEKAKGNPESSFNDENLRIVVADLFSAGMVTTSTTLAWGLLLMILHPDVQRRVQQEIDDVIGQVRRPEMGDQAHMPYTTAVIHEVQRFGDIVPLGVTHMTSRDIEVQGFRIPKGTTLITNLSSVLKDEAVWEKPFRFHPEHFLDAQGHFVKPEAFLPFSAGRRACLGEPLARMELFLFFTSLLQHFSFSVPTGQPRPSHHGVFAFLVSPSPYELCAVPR", "assay": "Inhibition of CYP2D6 (unknown origin)", "assay_type": "ADME"}, "[1]": {"assay": "Clearance in Sprague-Dawley rat at 2.5 mg/kg, iv by LC-MS/MS method", "assay_type": "ADME, organism-based", "settings": "in vivo"}, "[2]": {"assay": "Effective half life in beagle dog at 1 mg/kg, iv by LC-MS/MS method", "assay_type": "ADME, organism-based, Canis lupus familiaris", "settings": "in vivo, read-out: t1/2eff (converted)"}, "[3]": {"assay": "Drug level in Sprague-Dawley rat at 2 mg/kg, po after 24 hrs by LC-MS/MS method", "assay_type": "ADME, organism-based", "settings": "in vivo, read-out: Drug uptake"}, "[4]": {"assay": "Effective half life in cynomolgus monkey at 1 mg/kg, iv by LC-MS/MS method", "assay_type": "ADME, organism-based, Macaca fascicularis", "settings": "in vivo, read-out: t1/2eff (converted)"}, "[5]": {"assay": "Oral bioavailability in Sprague-Dawley rat at 2 mg/kg by LC-MS/MS method", "assay_type": "ADME, organism-based", "settings": "in vivo"}, "Rattus norvegicus": {"test_system": "Rattus norvegicus", "assay": "AUC in Sprague-Dawley rat at 2 mg/kg, po by LC-MS/MS method", "assay_type": "ADME, organism-based", "settings": "in vivo"}, "[6]": {"target": "T1, Nuclear receptor subfamily 1 group I member 2 (Homo sapiens, UniProt O75469)", "T1 sequence (O75469 whole entry)": "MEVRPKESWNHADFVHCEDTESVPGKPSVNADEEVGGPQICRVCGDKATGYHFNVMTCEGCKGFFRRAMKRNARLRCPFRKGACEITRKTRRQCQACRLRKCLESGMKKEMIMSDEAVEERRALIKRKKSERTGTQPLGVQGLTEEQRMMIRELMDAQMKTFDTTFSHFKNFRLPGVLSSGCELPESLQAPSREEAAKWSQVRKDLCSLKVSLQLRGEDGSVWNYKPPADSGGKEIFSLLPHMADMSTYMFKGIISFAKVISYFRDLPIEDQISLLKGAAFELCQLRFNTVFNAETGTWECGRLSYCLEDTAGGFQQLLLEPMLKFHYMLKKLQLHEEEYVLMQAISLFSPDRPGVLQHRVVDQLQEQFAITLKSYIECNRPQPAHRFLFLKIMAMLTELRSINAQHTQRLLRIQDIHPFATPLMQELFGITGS", "assay": "Activation of PXR (unknown origin)", "assay_type": "ADME"}, "Cytochrome P450 3A4": {"target": "Cytochrome P450 3A4 (Homo sapiens, UniProt P08684)", "sequence (P08684 whole entry)": "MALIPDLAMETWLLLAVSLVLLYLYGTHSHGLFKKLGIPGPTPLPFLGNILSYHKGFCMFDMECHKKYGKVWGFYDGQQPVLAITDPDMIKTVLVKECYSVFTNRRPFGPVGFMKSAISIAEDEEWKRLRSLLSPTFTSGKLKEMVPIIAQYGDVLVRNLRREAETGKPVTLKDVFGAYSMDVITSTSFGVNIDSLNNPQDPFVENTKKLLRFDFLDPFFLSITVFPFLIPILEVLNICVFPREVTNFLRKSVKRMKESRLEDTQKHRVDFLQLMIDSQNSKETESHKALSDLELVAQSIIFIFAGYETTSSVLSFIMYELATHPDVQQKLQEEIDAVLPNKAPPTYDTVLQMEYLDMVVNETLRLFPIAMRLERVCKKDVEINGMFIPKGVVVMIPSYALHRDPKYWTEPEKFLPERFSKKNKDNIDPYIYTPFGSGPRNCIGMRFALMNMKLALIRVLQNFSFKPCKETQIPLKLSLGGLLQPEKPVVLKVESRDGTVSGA", "assay": "Inhibition of CYP3A4 (unknown origin)", "assay_type": "ADME"}, "Canis familiaris [7]": {"test_system": "Canis familiaris", "assay": "AUC in beagle dog at 1 mg/kg, po by LC-MS/MS method", "assay_type": "ADME, organism-based, Canis lupus familiaris", "settings": "in vivo"}, "Homo sapiens": {"species_on_record": "Homo sapiens", "assay": "Inhibition of IKs channel (unknown origin) at 30 uM"}, "[8]": {"assay": "Cytotoxicity in human HuH7 replicon cells by MTS assay", "assay_type": "cell-based, Huh-7"}, "[9]": {"assay": "Effective half life in Sprague-Dawley rat at 2.5 mg/kg, iv by LC-MS/MS method", "assay_type": "ADME, organism-based", "settings": "in vivo, read-out: t1/2eff (converted)"}, "[10]": {"assay": "Oral bioavailability in beagle dog at 1 mg/kg by LC-MS/MS method", "assay_type": "ADME, organism-based, Canis lupus familiaris", "settings": "in vivo"}, "[11]": {"assay": "Clearance in cynomolgus monkey at 1 mg/kg, iv by LC-MS/MS method", "assay_type": "ADME, organism-based, Macaca fascicularis", "settings": "in vivo"}, "[12]": {"assay": "Drug level in beagle dog at 1 mg/kg, po after 24 hrs by LC-MS/MS method", "assay_type": "ADME, organism-based, Canis lupus familiaris", "settings": "in vivo, read-out: Drug uptake"}, "[13]": {"assay": "Clearance in beagle dog at 1 mg/kg, iv by LC-MS/MS method", "assay_type": "ADME, organism-based, Canis lupus familiaris", "settings": "in vivo"}, "Cytochrome P450 2C9": {"target": "Cytochrome P450 2C9 (Homo sapiens, UniProt P11712)", "sequence (P11712 whole entry)": "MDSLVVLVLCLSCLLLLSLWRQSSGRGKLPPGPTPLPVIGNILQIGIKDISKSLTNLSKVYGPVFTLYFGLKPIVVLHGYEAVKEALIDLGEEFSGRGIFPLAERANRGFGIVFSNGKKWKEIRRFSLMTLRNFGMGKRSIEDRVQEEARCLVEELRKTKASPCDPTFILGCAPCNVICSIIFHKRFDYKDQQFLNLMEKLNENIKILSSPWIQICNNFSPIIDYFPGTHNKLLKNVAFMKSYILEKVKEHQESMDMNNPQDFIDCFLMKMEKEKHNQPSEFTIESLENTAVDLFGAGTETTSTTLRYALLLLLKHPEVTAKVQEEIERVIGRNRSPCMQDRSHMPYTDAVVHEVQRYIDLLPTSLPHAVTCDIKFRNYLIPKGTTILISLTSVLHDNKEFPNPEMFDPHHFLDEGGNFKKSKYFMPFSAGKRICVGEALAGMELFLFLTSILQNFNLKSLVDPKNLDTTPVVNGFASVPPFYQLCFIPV", "assay": "Inhibition of CYP2C9 (unknown origin)", "assay_type": "ADME"}, "[14]": {"assay": "Drug level in Sprague-Dawley rat at 5 mg/kg, po after 24 hrs by LC-MS/MS method", "assay_type": "ADME, organism-based", "settings": "in vivo, read-out: Drug uptake"}, "[15]": {"assay": "Oral bioavailability in cynomolgus monkey at 2 mg/kg by LC-MS/MS method", "assay_type": "ADME, organism-based, Macaca fascicularis", "settings": "in vivo"}, "[16]": {"assay": "Drug level in beagle dog at 2 mg/kg, po after 24 hrs by LC-MS/MS method", "assay_type": "ADME, organism-based, Canis lupus familiaris", "settings": "in vivo, read-out: Drug uptake"}, "Canis familiaris [17]": {"test_system": "Canis familiaris", "assay": "AUC in beagle dog at 2 mg/kg, po by LC-MS/MS method", "assay_type": "ADME, organism-based, Canis lupus familiaris", "settings": "in vivo"}, "[18]": {"target": "T1, Nuclear receptor subfamily 1 group I member 2", "assay": "Activation of PXR in human hepatocytes assessed as induction of […] mRNA expression", "assay_type": "ADME, cell-based"}, "[19]": {"assay": "Drug level in cynomolgus monkey at 2 mg/kg, po after 24 hrs by LC-MS/MS method", "assay_type": "ADME, organism-based, Macaca fascicularis", "settings": "in vivo, read-out: Drug uptake"}, "[20]": {"target": "T2, PXR (Nuclear receptor subfamily 1 group I member 2) (Homo sapiens, UniProt O75469)", "T2 sequence (O75469 whole entry)": "T1 sequence (O75469 whole entry)", "assay": "Activation of PXR (unknown origin) relative to rifampicin", "assay_type": "ADME", "settings": "read-out: FC"}, "[21]": {"assay": "Oral bioavailability in Sprague-Dawley rat at 5 mg/kg by LC-MS/MS method", "assay_type": "ADME, organism-based", "settings": "in vivo"}, "[22]": {"assay": "Oral bioavailability in beagle dog at 2 mg/kg by LC-MS/MS method", "assay_type": "ADME, organism-based, Canis lupus familiaris", "settings": "in vivo"}, "Cynomolgus monkey": {"test_system": "Cynomolgus monkey", "assay": "AUC in cynomolgus monkey at 2 mg/kg, po by LC-MS/MS method", "assay_type": "ADME, organism-based, Macaca fascicularis", "settings": "in vivo"}},
  "note": "Calls of active or inactive are those of the source. No cut-off for these calls is given here.",
  "data": [
    {"compound": "COC(=O)N[C@H](C(=O)N1CCC[C@H]1c1ncc(-c2ccc(-c3cc4cc(-c5cnc([C@@H]6CCCN6C(=O)[C@@H](NC(=O)OC)C(C)C)[nH]5)ccc4o3)cc2)[nH]1)C(C)C", "values": [
      {"measurement": "INH", "setting": "Cytochrome P450 2D6", "value": "> 20", "unit": "µM"},
      {"measurement": "clearance", "setting": "[1]", "value": 9.3, "unit": "mL/min/kg"},
      {"measurement": "half-life", "setting": "[2]", "value": 4.7, "unit": "h"},
      {"measurement": "concentration at 24 h", "setting": "[3]", "value": 4, "unit": "nM"},
      {"measurement": "half-life", "setting": "[4]", "value": 3, "unit": "h"},
      {"measurement": "bioavailability", "setting": "[5]", "value": 38, "unit": "%"},
      {"measurement": "AUC", "setting": "Rattus norvegicus", "value": 1.7, "unit": "uM.hr/ml"},
      {"measurement": "Activity", "setting": "[6]", "value": 3, "unit": "µM"},
      {"measurement": "INH", "setting": "Cytochrome P450 3A4", "value": "> 20", "unit": "µM"},
      {"measurement": "AUC", "setting": "Canis familiaris [7]", "value": 1.1, "unit": "uM.hr/ml"},
      {"measurement": "inhibition", "setting": "Homo sapiens", "value": "inactive"},
      {"measurement": "CC50", "setting": "[8]", "value": 7, "unit": "µM"},
      {"measurement": "half-life", "setting": "[9]", "value": 2, "unit": "h"},
      {"measurement": "bioavailability", "setting": "[10]", "value": 26, "unit": "%"},
      {"measurement": "clearance", "setting": "[11]", "value": 9.1, "unit": "mL/min/kg"},
      {"measurement": "concentration at 24 h", "setting": "[12]", "value": 4, "unit": "nM"},
      {"measurement": "clearance", "setting": "[13]", "value": 6.4, "unit": "mL/min/kg"},
      {"measurement": "INH", "setting": "Cytochrome P450 2C9", "value": "> 20", "unit": "µM"}
    ]},
    {"compound": "COC(=O)N[C@H](C(=O)N1C[Si](C)(C)C[C@H]1c1ncc(-c2ccc(-c3ccc4c(ccc5nc([C@@H]6CC(F)(F)CN6C(=O)[C@@H](NC(=O)OC)C(C)C)[nH]c54)c3)cc2)[nH]1)C(C)C", "values": [
      {"measurement": "INH", "setting": "Cytochrome P450 2D6", "value": "> 20", "unit": "µM"},
      {"measurement": "clearance", "setting": "[1]", "value": 7, "unit": "mL/min/kg"},
      {"measurement": "concentration at 24 h", "setting": "[14]", "value": 94, "unit": "nM"},
      {"measurement": "bioavailability", "setting": "[15]", "value": 45, "unit": "%"},
      {"measurement": "concentration at 24 h", "setting": "[16]", "value": 0.4, "unit": "nM"},
      {"measurement": "AUC", "setting": "Canis familiaris [17]", "value": 32, "unit": "uM.hr/ml"},
      {"measurement": "half-life", "setting": "[2]", "value": 30, "unit": "h"},
      {"measurement": "Activity", "setting": "[18]", "value": 0.3, "unit": "µM"},
      {"measurement": "concentration at 24 h", "setting": "[19]", "value": 273, "unit": "nM"},
      {"measurement": "half-life", "setting": "[4]", "value": 15, "unit": "h"},
      {"measurement": "fold induction", "setting": "[20]", "value": 0.31},
      {"measurement": "bioavailability", "setting": "[21]", "value": 64, "unit": "%"},
      {"measurement": "INH", "setting": "Cytochrome P450 3A4", "value": "> 20", "unit": "µM"},
      {"measurement": "bioavailability", "setting": "[22]", "value": 47, "unit": "%"},
      {"measurement": "half-life", "setting": "[9]", "value": 10, "unit": "h"},
      {"measurement": "clearance", "setting": "[11]", "value": 0.7, "unit": "mL/min/kg"},
      {"measurement": "AUC", "setting": "Cynomolgus monkey", "value": 26, "unit": "uM.hr/ml"},
      {"measurement": "clearance", "setting": "[13]", "value": 0.7, "unit": "mL/min/kg"},
      {"measurement": "INH", "setting": "Cytochrome P450 2C9", "value": "> 20", "unit": "µM"}
    ]}
  ]
}
